Results on nine compounds are retold here after patent US5688485A, “Radiolabelled complexes of ester-substituted diaminethiols” (The DuPont Merck Pharmaceutical Company, priority 1992, dated 1997).

Where two headings read alike, the source gives them in different places.

For data set [1] the following is noted: rhesus monkey, in vivo.
Experimental: Three adult male Rhesus monkeys were used for planar scintigraphic imaging. Anesthesia was induced with ketamine and maintained with 1-2% halothane in a 70/30 mixture of nitrous oxide and oxygen.
All acquisitions were performed using a Picker Digital Dyna Camera and a Siemens MicroDELTA terminal/MAXDELTA system. A high resolution parallel-hole collimator ("HEX48") was mounted on the camera. The general static acquisition protocol was employed, using an acquisition matrix of 128 by 128 pixels, in word mode. Linearity, Z- and uniformity correction as provided for in the camera console, were employed and maintained.
To provide correction for attenuation, a transmission image of each animal was required. This had to be acquired in such a fashion as to permit the location of individual organs to be delineated from an aligned emission image. To do this, an 18-inch commercial refillable flood source (Nuclear Associates, Carle Place, N.Y.) was filled with water on a flat, horizontal surface. It was then loaded with between 20 mCi (740 Mbq) and 30 mCi (1110 Mbq) of Tc99mO4^-, and placed on a rolling cart. A Picker high-resolution collimator was then placed atop the source and the cart positioned under the patient examination table of the camera.
For each animal, a transmission image was acquired immediately prior to the control study injection, in the following fashion: An initial "flood" image was taken of the collimated source with neither the animal nor the examination table in place. Without moving anything else, the examination table, with the anesthetized animal, was placed between the source and the camera. Images were then taken of both the upper and lower portions of the body using a 128×128 pixel matrix in word mode. Table positioning was restricted by the track system so that positioning markers were necessary only for the dimension parallel to the animal's vertical axis.
Without moving the camera, the source was withdrawn and removed from the room. Adjustments to the camera-subject distance were made only by raising or lowering the table. The control compound was then injected and the control study begun. In this way, organs could be identified from the control study and the regions applied to the transmission study to determine attenuation correction factors on a per-organ basis. In addition, an "efficiency" factor was determined from images taken of a small flask containing a measured amount of radioactivity.
Following the injection of Tc-99m labeled materials, images were acquired of each animal using "spot" views over the upper and lower portions of the body with conjugate views (i.e. 180-degree opposed views) for each.
The resulting image data was analyzed by creating regions of interest (ROI's) for each organ and determining the sum of the recorded gamma photons for each organ in each view. From the transmission view, an attenuation correction factor was derived for each organ and the activity in the organ determined by taking the square root of the product of the ROI sums for conjugate views of the organ and then multiplying by the attenuation correction factor for that organ and then by the efficiency factor.
Each animal was imaged with Tc-99m-(L,L)-N,N'-1,2-ethylenediylbiscysteine, diethyl ester in order to serve as its own control. One test isomer was then administered to each of the monkeys. Frequent blood samples were drawn from a peripheral leg vein. Regions of interest were drawn around all pertinent organs and time-activity curves were constructed.
For data set [2] the following is noted: cited from earlier work.
The conditions of data set [3]: in words; cited from earlier work.

On to “syn-Tc-99m-(D,L)-N,N'-1,2-ethylenediylbiscysteine, diethyl ester [Example 2]”, for which, in data set [1], the Renal excretion result is listed as “most rapidly excreted” and the “Uptake in other organs / liver activity” value was “low uptake in other organs, especially the gall bladder”. In data set [1] (30 min), the “Biodistribution: Brain” value is given as 3.4 percentage of the initial inje, the “Biodistribution: Gall Bladder” value was 2.2 percentage of the initial inje and the “Biodistribution: Urinary Bladder” value was 58 percentage of the initial inje. In addition, in data set [1] (60 min), the “Biodistribution: Brain” value was 3.0 percentage of the initial inje, the “Biodistribution: Gall Bladder” value is 6.2 percentage of the initial inje and the “Biodistribution: Urinary Bladder” value is 74 percentage of the initial inje.
With `O=C(O)CNC(=O)c1ccccc1[131I]` [Example I-131-OIH, I-131-o-iodohippurate], the renal extraction efficiency in data set [2] (in vivo) was 65-80%. Moreover, the “Route / rate of renal elimination” value in data set [2] (in words) was “rapidly removed from the blood by active tubular secretion”. Also, the “radiation burden to the patient” value in data set [3] was “significant radiation burden to the patient”.
On to “Tc-99m-diethylenetriamine pentaacetic acid [Tc-99m-DTPA]”, for which, in data set [2] (in vivo), the maximum extraction efficiency is recorded as 20-25%. Also, the “Route / rate of renal elimination” value in data set [2] (in words) is reported as “eliminated entirely or nearly entirely by glomerular filtration”.
As for “Tc-99m-(L,L)-N,N'-1,2-ethylenediylbiscysteine, diethyl ester [Example 4]”, in data set [1] (30 min), the “Biodistribution: Brain” value was 5.8 percentage of the initial inje, the “Biodistribution: Gall Bladder” value is recorded as 10 percentage of the initial inje and the “Biodistribution: Urinary Bladder” value is 29 percentage of the initial inje. Moreover, in data set [1] (60 min), the “Biodistribution: Brain” value is 5.6 percentage of the initial inje, the “Biodistribution: Gall Bladder” value is recorded as 17 percentage of the initial inje and the “Biodistribution: Urinary Bladder” value was 42 percentage of the initial inje.
“Tc-99m-mercaptoacetyltriglycine [Tc-99m-MAG3]”: in data set [2] (in words), the “Route / rate of renal elimination” value is “secreted by the kidneys selectively by tubular secretion and approximately as rapidly as OIH”; the organ specificity result is given as “less than desired”.
As for `O=C(O)CNC(=O)c1ccccc1[123I]` [Example I-123-OIH], the “radiation burden to the patient” value in data set [3] was “much lower radiation burden to the patient”.
Take “anti-Tc-99m-(D,L)-N,N'-1,2-ethylenediylbiscysteine, diethyl ester [Example 3]”: in data set [1] (30 min), the “Biodistribution: Brain” value is 2.1 percentage of the initial inje, the “Biodistribution: Gall Bladder” value was 2.7 percentage of the initial inje and the “Biodistribution: Urinary Bladder” value is given as 4.2 percentage of the initial inje. Moreover, in data set [1] (60 min), the “Biodistribution: Brain” value is on record as 1.8 percentage of the initial inje, the “Biodistribution: Gall Bladder” value is given as 6.4 percentage of the initial inje and the “Biodistribution: Urinary Bladder” value is 4.0 percentage of the initial inje.
“Tc-99m-(D,D)-N,N'-1,2-ethylenediylbiscysteine, diethyl ester [Example 5]”: in data set [1] (30 min), the “Biodistribution: Brain” value is on record as 1.7 percentage of the initial inje, the “Biodistribution: Gall Bladder” value is recorded as 5.5 percentage of the initial inje and the “Biodistribution: Urinary Bladder” value is reported as 5.0 percentage of the initial inje. In data set [1] (60 min), the “Biodistribution: Brain” value is 1.4 percentage of the initial inje, the “Biodistribution: Gall Bladder” value is on record as 5.2 percentage of the initial inje and the “Biodistribution: Urinary Bladder” value was 15 percentage of the initial inje.
With `Nc1ccc(C(=O)NCC(=O)O)cc1` [PAH, p-aminohippuric acid], the “removed from the plasma by active secretion into the tubules” value in data set [2] (in vivo) is recorded as “approximately 70%”.
